Calls of active or inactive are those of the source.
Legend:
[1] = molecular target: T1, Mannose-6-phosphate isomerase (Homo sapiens, UniProt P34949); experiment: MPI enzyme activity inhibition – biochemical, fluorescence intensity, coupled assay, primary screen (AID 1209)
T1 sequence (P34949 whole entry): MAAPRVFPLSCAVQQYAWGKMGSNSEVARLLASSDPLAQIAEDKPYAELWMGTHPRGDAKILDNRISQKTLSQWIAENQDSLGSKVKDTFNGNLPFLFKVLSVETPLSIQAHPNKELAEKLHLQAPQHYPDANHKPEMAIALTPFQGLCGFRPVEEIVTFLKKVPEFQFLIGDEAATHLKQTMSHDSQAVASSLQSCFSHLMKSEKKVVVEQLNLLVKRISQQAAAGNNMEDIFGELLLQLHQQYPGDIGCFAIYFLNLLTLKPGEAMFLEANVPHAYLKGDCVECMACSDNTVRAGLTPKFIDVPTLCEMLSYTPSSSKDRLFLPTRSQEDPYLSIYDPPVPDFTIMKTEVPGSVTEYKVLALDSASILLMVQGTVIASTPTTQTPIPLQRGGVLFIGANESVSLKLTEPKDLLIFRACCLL

[2] = molecular target: T2, Peroxisome proliferator-activated receptor gamma/Nuclear receptor coactivator 3 (Homo sapiens, UniProt P37231); type: functional
[3] = molecular target: T3, Peroxisome proliferator-activated receptor gamma/Nuclear receptor coactivator 2 (Homo sapiens, UniProt P37231); type: functional
[4] = molecular target: T4, Peroxisome proliferator-activated receptor gamma/Nuclear receptor coactivator 1 (Homo sapiens, UniProt P37231); type: functional
[5] = molecular target: T5, Cytochrome P450 1A2 (Homo sapiens, UniProt P05177);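 also: PubChem cytochrome P450 panel assay, CYP1A2 panel member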
T5 sequence (P05177 whole entry): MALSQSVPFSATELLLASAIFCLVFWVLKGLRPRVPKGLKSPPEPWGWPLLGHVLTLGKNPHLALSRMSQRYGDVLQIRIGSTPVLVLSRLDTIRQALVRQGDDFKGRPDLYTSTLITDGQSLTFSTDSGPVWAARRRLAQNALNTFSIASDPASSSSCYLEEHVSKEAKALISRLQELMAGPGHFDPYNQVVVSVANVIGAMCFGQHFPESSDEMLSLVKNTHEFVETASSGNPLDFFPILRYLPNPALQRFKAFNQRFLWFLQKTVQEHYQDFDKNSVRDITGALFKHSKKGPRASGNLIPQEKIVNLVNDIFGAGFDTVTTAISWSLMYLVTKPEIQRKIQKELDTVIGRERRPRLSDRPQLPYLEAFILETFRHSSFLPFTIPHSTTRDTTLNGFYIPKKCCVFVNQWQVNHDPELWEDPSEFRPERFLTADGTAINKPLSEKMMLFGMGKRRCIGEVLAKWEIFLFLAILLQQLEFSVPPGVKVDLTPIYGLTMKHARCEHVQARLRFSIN

[6] = molecular target: Cytochrome P450 2D6 (Homo sapiens, UniProt P10635);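 also: CYP2D6 member of a cytochrome P450 panel assay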
[7] = molecular target: T6, Protein Tat (Human immunodeficiency virus type 1 group M subtype B (isolate HXB2)(HIV-1), UniProt P04608); type: functional;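 also: tat binding to TAR RNA read out by fluorescence polarization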
T6 sequence (P04608 whole entry): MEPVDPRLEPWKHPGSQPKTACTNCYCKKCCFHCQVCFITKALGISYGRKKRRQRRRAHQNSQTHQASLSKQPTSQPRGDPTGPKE

[8] = blockers of bursicon-stimulated LGR2 cAMP reporter – cell-based, HEK293, CRE-luciferase reporter, cherry pick, set 2, dose response (AID 743343); type: functional;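 also: transfected cells were stimulated with diluted bursicon conditioned medium after compound addition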
[9] = molecular target: T7, Oxysterols receptor LXR-beta (Homo sapiens, UniProt P55055); type: functional, cell-based;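 also: Cell-based luminescence dose-response assay of agonist activity at LXR, run as a confirmatory counterscreen to a daf-12 agonist screen; HEK293 cells with Gal4-LXR fusion and GAL4-driven luciferase reporter; agonist potency from rising luciferase signal of a Gal4-LXR reporter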
T7 sequence (P55055 whole entry): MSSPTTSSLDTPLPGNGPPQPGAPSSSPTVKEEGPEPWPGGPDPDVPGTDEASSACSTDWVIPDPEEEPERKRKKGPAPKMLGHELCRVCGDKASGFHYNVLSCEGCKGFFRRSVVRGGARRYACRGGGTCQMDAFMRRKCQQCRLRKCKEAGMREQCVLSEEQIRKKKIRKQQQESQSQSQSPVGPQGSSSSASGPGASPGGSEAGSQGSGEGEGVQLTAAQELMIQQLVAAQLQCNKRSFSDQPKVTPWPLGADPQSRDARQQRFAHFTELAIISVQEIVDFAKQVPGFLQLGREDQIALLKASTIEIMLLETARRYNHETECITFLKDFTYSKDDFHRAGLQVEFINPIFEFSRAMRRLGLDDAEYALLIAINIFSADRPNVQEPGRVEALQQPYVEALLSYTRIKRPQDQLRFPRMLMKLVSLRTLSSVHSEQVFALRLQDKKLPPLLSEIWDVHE

[10] = A549 cell cytotoxicity, dose response, cytotoxicity control, plate reader, cherry-pick, antagonist series (AID 743412); type: functional, cell-based
[11] = toxicity toward HepG2 liver cells – cell-based, plate reader, cherry-pick, antagonist series, cytotoxicity control, dose response (AID 743416); type: functional
[12] = viability loss in HEK293 cells – cell-based, plate reader, cherry-picked samples, cytotoxicity control, dose response (AID 743446); type: functional
[13] = blockade of melanocortin 4 receptor signaling – cell-based, plate reader, cherry pick, counter-screen for LGR2 antagonist project, dose response (AID 743444); type: functional;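 also: transfected HEK 293 cells stimulated with alpha-MSH peptide; potency of inhibitors of the alpha-MSH evoked signal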
[14] = cells
[15] = A cytotoxicity screen of small molecule inhibitors of the PhoP region in Salmonella typhi identified in the primary screen. [Related pubchem assays: 1850, 1864, 1985 ]; type: functional
[16] = molecular target: T8, Rac GTPase-activating protein 1 (Homo sapiens, UniProt Q9H0H5); experiment: blockers of MgcRacGAP-driven Rac1 GTP hydrolysis – biochemical, ADP Hunter fluorescence, primary and confirmatory, confirmation (AID 624330); type: functional
T8 sequence (Q9H0H5 whole entry): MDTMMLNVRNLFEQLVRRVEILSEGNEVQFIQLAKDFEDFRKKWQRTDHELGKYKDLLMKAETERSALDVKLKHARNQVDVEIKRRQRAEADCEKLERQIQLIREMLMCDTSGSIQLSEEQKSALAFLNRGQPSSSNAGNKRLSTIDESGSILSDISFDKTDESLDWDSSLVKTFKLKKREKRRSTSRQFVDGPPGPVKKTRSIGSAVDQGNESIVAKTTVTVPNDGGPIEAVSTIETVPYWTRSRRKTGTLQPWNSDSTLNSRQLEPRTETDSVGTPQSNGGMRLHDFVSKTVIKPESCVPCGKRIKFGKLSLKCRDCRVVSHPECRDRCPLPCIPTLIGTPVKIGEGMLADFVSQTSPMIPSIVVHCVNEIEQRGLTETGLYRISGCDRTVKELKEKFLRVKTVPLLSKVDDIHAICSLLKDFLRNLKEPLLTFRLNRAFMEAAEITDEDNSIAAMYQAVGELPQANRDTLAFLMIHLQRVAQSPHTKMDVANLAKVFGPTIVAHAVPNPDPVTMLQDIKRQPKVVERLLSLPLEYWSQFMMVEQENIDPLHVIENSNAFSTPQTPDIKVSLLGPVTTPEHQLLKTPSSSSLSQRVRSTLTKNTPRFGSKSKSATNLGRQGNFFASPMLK

[17] = test system: HEK293; experiment: cells; settings: Homo sapiens
[18] = Luminescence Cell-Based Dose Retest to Confirm Inhibitors of Cancer Stem Cells. [Related pubchem assays (depositor defined):AID2717, AID2721]; type: functional; settings: Homo sapiens
[19] = test system: HEK293; experiment: cells; settings: Homo sapiens; remark: listed apart in the source
[20] = HEK-293T viability loss after treatment – luminescence, T-cell screen hits, cytotoxicity control for TCR NF-kB inhibitor project, dose response (AID 489026); type: functional, cell-based;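 also: cells exposed to compound about 14 hours before the viability readout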
[21] = viability loss in THP-1 monocytes – THP-1 cells, cytotoxicity control for Vif-APOBEC3G degradation inhibitor project, dose response (AID 1117359); type: functional; settings: THP-1
[22] = molecular target: Estrogen receptor beta (Homo sapiens, UniProt Q92731);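 also: recombinant ER-beta bound to coactivator SRC1 peptide in presence of estradiol agonist; inhibitors block coactivator peptide binding and lower the FRET signal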
[23] = molecular target: T2, Peroxisome proliferator-activated receptor gamma/Nuclear receptor coactivator 3; experiment: (§1) TR-FRET dose response biochemical High Throughput Screening assay for agonists of the steroid receptor coactivator 3 (SRC-3) recruitment by the peroxisome proliferator-activated receptor gamma (PPAR gamma): non-selective agonists. [Related pubchem assays: 1301 (Confirmation screen.), 1048 (Primary screen.)]; type: functional
[24] = molecular target: T4, Peroxisome proliferator-activated receptor gamma/Nuclear receptor coactivator 1; experiment: as §1, with “1 (SRC-1)” for “3 (SRC-3)”, “assays (depositor defined):AID1300, AID1808, AID504735, AID631]” for “assays: 1301 (Confirmation screen.), 1048 (Primary screen.)]”; type: protein assay
[25] = molecular target: T3, Peroxisome proliferator-activated receptor gamma/Nuclear receptor coactivator 2; experiment: TR-FRET dose response biochemical High Throughput Screening assay for agonists of the steroid receptor coactivator 2 (SRC-2) recruitment by the peroxisome proliferator-activated receptor gamma (PPAR gamma): non-selective agonists. [Related pubchem assays: 1297, 1032 ]; type: functional
[26] = molecular target: Paired box protein Pax-8 (Homo sapiens, UniProt Q06710); experiment: PAX8 transcriptional activity inhibition in RMG-I – RMG-I cells, luciferase, cherry-pick, dose response (AID 687027); type: functional, cell-based;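 also: luciferase reporter driven by Pax8 target thyroperoxidase promoter measured by SteadyGlo luminescence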
[27] = OVCAR-3 cell viability loss – plate reader, dry powder samples, PAX8 inhibitor project, dose response (AID 743044); type: functional, cell-based
[28] = test system: HT-1080; experiment: HT1080 cell viability loss – fluorescence readout (AID 620); type: functional, cell-based; settings: Homo sapiens
[29] = test system: HEK293; experiment: EBV LMP1 TES2 canonical NF-kB signalling blockers – cell-based, HEK293, luciferase, cherry-pick, dose response (AID 588343); type: functional; settings: Homo sapiens
[30] = molecular target: T9, Protein skinhead-1 (Caenorhabditis elegans, UniProt P34707); type: functional
T9 sequence (P34707 whole entry): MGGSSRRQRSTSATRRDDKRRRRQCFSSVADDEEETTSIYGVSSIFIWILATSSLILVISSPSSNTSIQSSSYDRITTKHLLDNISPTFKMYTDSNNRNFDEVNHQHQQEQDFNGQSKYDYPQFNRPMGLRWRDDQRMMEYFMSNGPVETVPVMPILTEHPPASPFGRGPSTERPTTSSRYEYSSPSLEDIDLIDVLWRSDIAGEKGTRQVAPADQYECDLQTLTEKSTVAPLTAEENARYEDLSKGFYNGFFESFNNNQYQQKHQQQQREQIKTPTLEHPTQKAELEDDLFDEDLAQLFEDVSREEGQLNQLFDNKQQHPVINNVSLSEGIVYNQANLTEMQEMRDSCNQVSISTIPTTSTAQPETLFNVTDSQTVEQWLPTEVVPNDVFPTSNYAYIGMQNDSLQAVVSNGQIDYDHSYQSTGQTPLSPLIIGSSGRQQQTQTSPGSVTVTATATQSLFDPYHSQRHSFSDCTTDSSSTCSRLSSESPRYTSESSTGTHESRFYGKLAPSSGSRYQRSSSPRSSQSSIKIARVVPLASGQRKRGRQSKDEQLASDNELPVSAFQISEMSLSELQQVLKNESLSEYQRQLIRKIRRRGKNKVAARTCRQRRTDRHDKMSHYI

[31] = molecular target: Luciferin 4-monooxygenase (Photinus pyralis, UniProt P08659); experiment: Counter Screen for Luciferase-based Assay Positives. [Related pubchem assays: 620, 618, 411 ]

T4 sequence (P37231 whole entry): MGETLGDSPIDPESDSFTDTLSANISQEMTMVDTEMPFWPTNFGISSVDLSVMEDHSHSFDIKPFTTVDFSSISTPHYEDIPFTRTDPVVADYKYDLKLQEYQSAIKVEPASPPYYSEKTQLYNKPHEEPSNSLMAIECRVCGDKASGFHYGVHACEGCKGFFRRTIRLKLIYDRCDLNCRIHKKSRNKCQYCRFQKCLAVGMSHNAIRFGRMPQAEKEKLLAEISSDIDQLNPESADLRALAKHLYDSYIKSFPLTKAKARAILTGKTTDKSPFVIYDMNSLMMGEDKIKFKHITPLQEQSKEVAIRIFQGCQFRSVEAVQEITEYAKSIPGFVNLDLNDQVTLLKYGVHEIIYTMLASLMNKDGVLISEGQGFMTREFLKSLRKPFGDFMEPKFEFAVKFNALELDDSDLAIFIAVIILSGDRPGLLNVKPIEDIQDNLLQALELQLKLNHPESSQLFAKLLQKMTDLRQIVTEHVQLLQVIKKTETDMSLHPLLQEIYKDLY
T4 sequence (Q15788 whole entry, further chain): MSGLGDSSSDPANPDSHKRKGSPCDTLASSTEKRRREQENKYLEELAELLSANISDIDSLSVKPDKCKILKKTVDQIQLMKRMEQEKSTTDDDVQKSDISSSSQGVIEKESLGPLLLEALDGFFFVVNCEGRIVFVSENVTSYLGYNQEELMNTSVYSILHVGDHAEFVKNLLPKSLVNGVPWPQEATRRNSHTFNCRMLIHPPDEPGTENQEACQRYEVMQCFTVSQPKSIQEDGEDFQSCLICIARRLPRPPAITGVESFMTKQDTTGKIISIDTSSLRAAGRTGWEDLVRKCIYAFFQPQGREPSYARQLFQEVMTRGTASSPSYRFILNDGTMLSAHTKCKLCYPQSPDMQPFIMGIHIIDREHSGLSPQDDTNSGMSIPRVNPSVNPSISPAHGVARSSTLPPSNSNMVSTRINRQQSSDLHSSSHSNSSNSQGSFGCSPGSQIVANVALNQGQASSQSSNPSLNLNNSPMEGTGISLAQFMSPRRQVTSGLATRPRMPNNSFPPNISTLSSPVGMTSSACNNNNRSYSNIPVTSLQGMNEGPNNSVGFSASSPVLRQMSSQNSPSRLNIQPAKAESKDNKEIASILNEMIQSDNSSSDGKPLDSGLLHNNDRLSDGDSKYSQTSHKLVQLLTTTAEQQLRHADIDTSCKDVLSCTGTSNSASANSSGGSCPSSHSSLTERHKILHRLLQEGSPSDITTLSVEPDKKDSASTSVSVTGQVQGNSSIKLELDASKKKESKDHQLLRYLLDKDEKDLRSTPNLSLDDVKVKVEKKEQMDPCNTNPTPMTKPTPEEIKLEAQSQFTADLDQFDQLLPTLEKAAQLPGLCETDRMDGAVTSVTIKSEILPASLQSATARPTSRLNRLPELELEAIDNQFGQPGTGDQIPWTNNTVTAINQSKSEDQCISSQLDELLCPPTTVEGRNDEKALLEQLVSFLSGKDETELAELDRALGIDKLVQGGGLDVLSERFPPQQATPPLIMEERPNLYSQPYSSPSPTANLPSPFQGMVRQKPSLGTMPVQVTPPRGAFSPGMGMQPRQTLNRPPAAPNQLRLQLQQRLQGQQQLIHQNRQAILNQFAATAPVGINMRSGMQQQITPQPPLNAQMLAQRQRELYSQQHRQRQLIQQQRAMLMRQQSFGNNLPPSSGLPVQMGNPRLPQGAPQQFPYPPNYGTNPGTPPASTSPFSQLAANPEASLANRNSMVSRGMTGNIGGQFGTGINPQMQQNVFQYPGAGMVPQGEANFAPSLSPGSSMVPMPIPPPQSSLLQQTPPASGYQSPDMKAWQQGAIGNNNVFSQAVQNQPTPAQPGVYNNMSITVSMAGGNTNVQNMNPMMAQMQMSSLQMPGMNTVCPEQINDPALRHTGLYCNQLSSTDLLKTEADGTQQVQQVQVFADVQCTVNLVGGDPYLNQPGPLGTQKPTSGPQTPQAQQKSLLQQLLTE
T2 sequence (P37231 whole entry): as the sequence (P37231 whole entry) above
T2 sequence (Q9Y6Q9 whole entry, further chain): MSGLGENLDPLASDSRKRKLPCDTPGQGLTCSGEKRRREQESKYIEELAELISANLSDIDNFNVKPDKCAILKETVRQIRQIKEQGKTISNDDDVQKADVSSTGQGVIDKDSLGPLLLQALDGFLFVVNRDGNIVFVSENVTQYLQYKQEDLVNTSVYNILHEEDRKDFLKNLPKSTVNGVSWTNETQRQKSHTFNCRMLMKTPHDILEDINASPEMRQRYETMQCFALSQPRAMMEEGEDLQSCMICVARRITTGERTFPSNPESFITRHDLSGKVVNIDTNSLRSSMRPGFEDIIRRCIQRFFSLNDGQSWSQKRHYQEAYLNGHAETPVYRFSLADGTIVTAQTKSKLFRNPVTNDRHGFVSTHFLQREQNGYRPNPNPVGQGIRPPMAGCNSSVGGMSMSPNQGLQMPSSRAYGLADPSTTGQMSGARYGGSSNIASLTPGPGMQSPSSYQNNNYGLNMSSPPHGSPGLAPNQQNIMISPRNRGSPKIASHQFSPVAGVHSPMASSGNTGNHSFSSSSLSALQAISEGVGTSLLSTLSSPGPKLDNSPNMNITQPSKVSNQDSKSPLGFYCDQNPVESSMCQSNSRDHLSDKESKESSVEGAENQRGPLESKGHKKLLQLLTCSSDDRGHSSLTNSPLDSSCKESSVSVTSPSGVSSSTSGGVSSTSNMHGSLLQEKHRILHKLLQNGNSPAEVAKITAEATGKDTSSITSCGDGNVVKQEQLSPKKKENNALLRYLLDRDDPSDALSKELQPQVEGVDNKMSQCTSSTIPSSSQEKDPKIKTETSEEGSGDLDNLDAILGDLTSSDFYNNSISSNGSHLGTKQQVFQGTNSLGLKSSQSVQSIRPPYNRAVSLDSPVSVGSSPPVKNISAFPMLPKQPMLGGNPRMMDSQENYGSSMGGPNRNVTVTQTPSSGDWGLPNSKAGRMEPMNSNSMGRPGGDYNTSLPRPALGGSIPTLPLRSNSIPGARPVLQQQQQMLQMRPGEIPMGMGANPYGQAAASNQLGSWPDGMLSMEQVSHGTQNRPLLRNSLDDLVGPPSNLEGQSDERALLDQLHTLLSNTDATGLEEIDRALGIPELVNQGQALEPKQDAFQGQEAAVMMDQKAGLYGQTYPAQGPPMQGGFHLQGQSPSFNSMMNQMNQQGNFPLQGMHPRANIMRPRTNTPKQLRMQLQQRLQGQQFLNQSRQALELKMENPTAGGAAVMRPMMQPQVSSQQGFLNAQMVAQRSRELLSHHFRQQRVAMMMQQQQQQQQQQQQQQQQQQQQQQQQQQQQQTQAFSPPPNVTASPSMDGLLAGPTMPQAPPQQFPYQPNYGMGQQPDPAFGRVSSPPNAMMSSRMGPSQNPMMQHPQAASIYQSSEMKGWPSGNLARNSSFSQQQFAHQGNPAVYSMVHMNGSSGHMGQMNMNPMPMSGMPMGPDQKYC
Chain of Estrogen receptor beta (Q92731 whole entry): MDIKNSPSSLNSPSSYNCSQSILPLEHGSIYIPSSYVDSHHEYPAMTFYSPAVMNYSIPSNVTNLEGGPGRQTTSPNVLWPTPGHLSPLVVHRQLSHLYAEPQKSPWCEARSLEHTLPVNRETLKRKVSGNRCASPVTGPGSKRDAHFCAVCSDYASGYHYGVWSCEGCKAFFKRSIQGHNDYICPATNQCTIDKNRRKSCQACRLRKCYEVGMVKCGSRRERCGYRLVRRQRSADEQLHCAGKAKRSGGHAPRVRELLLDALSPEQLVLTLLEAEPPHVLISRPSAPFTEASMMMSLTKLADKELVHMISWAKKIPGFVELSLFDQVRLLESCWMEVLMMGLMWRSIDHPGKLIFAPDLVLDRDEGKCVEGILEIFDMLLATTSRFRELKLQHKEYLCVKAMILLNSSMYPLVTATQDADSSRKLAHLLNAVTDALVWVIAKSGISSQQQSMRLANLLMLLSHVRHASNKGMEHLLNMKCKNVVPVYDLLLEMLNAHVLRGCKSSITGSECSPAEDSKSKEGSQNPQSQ
Chain of Paired box protein Pax-8 (Q06710 whole entry): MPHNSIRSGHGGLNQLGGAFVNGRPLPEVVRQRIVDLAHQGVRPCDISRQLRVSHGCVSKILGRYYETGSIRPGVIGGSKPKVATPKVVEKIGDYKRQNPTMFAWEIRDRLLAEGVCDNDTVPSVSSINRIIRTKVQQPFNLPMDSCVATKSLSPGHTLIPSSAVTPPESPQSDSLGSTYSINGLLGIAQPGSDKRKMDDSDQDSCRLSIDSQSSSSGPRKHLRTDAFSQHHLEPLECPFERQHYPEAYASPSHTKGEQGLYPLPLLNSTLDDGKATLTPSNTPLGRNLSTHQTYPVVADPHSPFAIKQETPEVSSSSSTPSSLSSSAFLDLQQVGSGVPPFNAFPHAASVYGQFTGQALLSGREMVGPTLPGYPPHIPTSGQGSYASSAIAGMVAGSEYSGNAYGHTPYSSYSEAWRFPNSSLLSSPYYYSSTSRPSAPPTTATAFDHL

COc1ccccc1CSc1nc(-c2ccc([N+](=O)[O-])cc2)c[nH]1
IC50 [1]: > 50 µM (not active)

COc1ccc(-c2noc(-c3ccc(Br)o3)n2)cc1OC
EC50 [2]: 68.6 µM (not active)
EC50 [3]: 63 µM (not active)
EC50 [4]: 64.1 µM (not active)

Cc1ccc2nc(SCC(=O)NCc3cccs3)c(C#N)cc2c1
AC50 [5]: 0.708 µM (inconclusive)
EC50 [2]: 20.8 µM (not active)
AC50 [6]: 0.316 µM (inconclusive)
EC50 [3]: 11.6 µM (not active)
EC50 [4]: 19 µM (not active)

Cc1ccc(C2=NN=C(NC(=O)C(F)(F)F)SC2)cc1
IC50 [1]: > 50 µM (not active)

O=c1cc(O)n(-c2ccc(F)cc2)c(=S)[nH]1
IC50 [7]: > 100 µM (active)

Cc1cc2ncc(-c3cccs3)nc2cc1C
AC50 [8]: 4.64 µM (active)
EC50 [9]: > 67.6 µM (inactive)
AC50 [10]: 25.7 µM (active)
AC50 [11]: > 52 µM (inactive)
AC50 [12]: 49.4 µM (active)
AC50 [13]: 4.22 µM (active)
EC50 [14]: > 67.6 µM (inactive)

CC(C)CNC(CC(=O)O)c1ccccc1 (stereo not drawn)
EC50 [15]: > 50 µM (active)

Brc1ccccc1C1NC(c2ccccc2)=NO1 (stereo not drawn)
EC50 [9]: > 67.5 µM (inactive)
EC50 [14]: > 67.5 µM (inactive)

COc1ccc(N2C(=O)CC(N3CC=C(c4ccccc4)CC3)C2=O)cc1 (stereo not drawn)
EC50 [15]: > 50 µM (active)

C/C(=C\C(=O)c1cccnc1)Nc1ccc(O)cc1
IC50 [7]: 26.2 µM (inconclusive)
IC50 [16]: 14.7 µM (active)

COc1ccc([N+](=O)[O-])cc1Nc1c2ccccc2nc2ccccc12
EC50 [17]: > 59.6 µM (inactive)
AC50 [18]: 0.956 µM (active)
EC50 [19]: > 59.6 µM (inactive)
IC50 [20]: > 80 µM (inactive)

Cc1cc(C)cc(NCc2cc3c(cc2[N+](=O)[O-])OCO3)c1
CC50 [21]: > 40 µM (active)
IC50 [7]: > 100 µM (inconclusive)

Cc1ccc(C)c(Cn2c(=O)n(-c3ccc(CC(=O)NCc4ccco4)cc3)c(=O)c3sccc32)c1
IC50 [22]: > 50 µM (not active)

Cc1ccc(-c2ccc(/C=C(\C#N)C(N)=S)o2)c([N+](=O)[O-])c1
EC50 [2]: > 79.4 µM (not active)
EC50 [3]: > 79.4 µM (not active)
EC50 [4]: > 79.4 µM (not active)

Oc1ncnc2c1c(-c1ccccc1)cn2-c1ccc(F)cc1
EC50 [17]: > 59.6 µM (inactive)
EC50 [19]: > 59.6 µM (inactive)

COc1ccc(CNCC(O)COc2ccc(C)cc2[N+](=O)[O-])cc1 (stereo not drawn)
EC50 [15]: > 50 µM (active)

Cn1c(=O)c2c(ncn2CCCNC2=CC(C)(C)CC(=O)C2)n(C)c1=O
IC50 [22]: > 50 µM (not active)

CCCC(=O)Nc1nc(C)c(C(C)=O)s1
EC50 [23]: > 79.4 µM (not active)
EC50 [24]: > 79.4 µM (inactive)
EC50 [25]: 137 µM (not active)

C[C@H](CO)N1C[C@H](C)[C@@H](CN(C)Cc2ccc(C(F)(F)F)cc2)OCCCC[C@H](C)Oc2ccc(NC(=O)Cc3ccccc3)cc2C1=O
AC50 [26]: 9.66 µM (active)
AC50 [27]: 30.6 µM (active)

Brc1ccc(-c2nc(-c3ccccn3)no2)o1
AC50 [8]: 2.92 µM (active)
EC50 [9]: > 67.5 µM (inactive)
EC50 [28]: > 50 µM (not active)
AC50 [10]: > 52 µM (inactive)
AC50 [11]: > 52 µM (inactive)
AC50 [29]: 2.33 µM (active)
AC50 [13]: 3.84 µM (active)
IC50 [30]: 72.1 µM (inactive)
EC50 [14]: > 67.5 µM (inactive)
EC50 [31]: 2.58 µM (active)
